Source: US20180030091A1, “COLLAGEN-BINDING SYNTHETIC PEPTIDOGLYCANS FOR USE IN VASCULAR INTERVENTION” (Purdue Research Foundation, priority 2010, published 2018)
Where no end group is shown, it is not given here. The star is where a group is joined. Dansyl = CN(C)c1cccc2c(S(=O)(=O)*)cccc12

What was measured:
[1] = test system: Human coronary artery smooth muscle cells (HCA SMC); assay: Gel compaction by smooth muscle cells in collagen gels; assay type: cell-based; details: Day 7
Method: Human coronary artery smooth muscle cells (HCA SMC) (Cascade Biologics) were cultured in growth medium (Medium 231 supplemented with smooth muscle growth factor). Cells from passage 3 were used for all experiments. Differentiation medium (Medium 231 supplemented with 1% FBS and 1×pen/strep) was used for all experiments unless otherwise noted.
Collagen gels were prepared with each additive as described with the exception that the 1×PBS sample addition was omitted to accommodate the addition of cells in media. After incubating on ice for 30 min, HCA SMCs in differentiation medium were added to the gel solutions to a final concentration of 1×10^6 cells/mL. Gels were formed in quadruplicate in 48-well non-tissue culture treated plates (Costar) for 6 hrs before adding 500 μL/well differentiation medium. Gels were freed from the well edges after 24 hrs. Medium was changed every 2-3 days and images for compaction were taken at the same time points using a Gel Doc System (Bio-Rad). The cross-sectional area of circular gels correlating to degree of compaction was determined using ImageJ software (NIH). Gels containing no cells were used as a negative control and cells in collagen gels absent additive were used as a positive control. By day 10 all gels had compacted to approximately 10% of the original gel area, and differences between additives were small.

[2] = test system: Human platelets on Type I fibrillar collagen; assay: Inhibition of platelet activation on fibrillar collagen after 24 hour rinse (PF4, NAP2); assay type: cell-based; details: 50 μM, incubated 15 min, rinsed for 24 hours
Method: Type I fibrillar collagen from Chronolog was diluted in isotonic glucose to a concentration of 50 μg/mL. 50 μL of collagen solution was added to each well of a high bind 96-well plate. The plate was incubated overnight at 4° C., and then rinsed 3× with 1×PBS. For microplate assays, peptidoglycan was diluted in 1×PBS at concentrations between 0.0001 μM to 100 μM and 50 μL solution was added to the collagen coated wells. DS, peptide, or 1×PBS were also added to collagen coated wells as controls. Treatments were incubated at 37° C. with shaking at 200 rpm for 15 min. Wells were then rinsed of unbound treatment by removing the treatment solution, adding PBS, and shaking the wells for 24 hours. During the 24 hours, PBS solution was changed 3 times.
Human whole blood was collected from healthy volunteers by venipuncture. The first 5 mL of blood was discarded and approximately 20 mL was then collected into citrated glass vacutainers (BD Bioscience). Blood was centrifuged in the glass tube for 20 min at 200 g at 25° C. The top layer of the centrifuged blood, the platelet rich plasma (PRP), was used for platelet experiments.
PRP (50 μL/well) was added to the microplate for 1 hour at room temperature without shaking. After 1 hour of incubation, 45 μL of PRP was removed from each well and added to a microcentrifuge tube containing […] ETP (107 mM EDTA, 12 mM theophylline, and 2.8 mM prostaglandin E1) to inhibit further platelet activation. These tubes were spun at 4° C. for 30 min at 2000 g to pellet the platelets. The supernatant (platelet serum) was collected for ELISA studies to test for the presence of platelet activation markers PF-4 and NAP2. Sandwich ELISAs were utilized in order to detect each protein. The components for both sandwich ELISAs were purchased from R&D Systems and the provided protocols were followed. Platelet serum was diluted 10,000 times in 1% BSA in 1×PBS for values to fall within a linear range.
Platelet activation was measured through release of platelet factor 4 (PF4) and β-thromboglobulin (NAP2). […] Since the high SILY/DS ratio is expected to provide higher binding affinity to the collagen surface due to multiple interactions, peptidoglycans with the higher SILY/DS ratios were prepared.
The number of peptides per DS molecule was further increased to 18 to create the peptidoglycan DS-SILY18, and the concentration of molecule needed to inhibit platelet activation was tested. […] Within solubility limits, the number of peptides can be increased to achieve maximal platelet inhibition as well as to reduce diffusion over time, where a higher level of peptidoglycans on the denuded vessel wall is sustained.

HCA SMCs = assay: Elastin measurement by Fastin assay; assay type: cell-based, Human; details: gels cultured for 10 days
Method: Collagen gels seeded with HCA SMCs were prepared as described in EXAMPLE 25. Differentiation medium was changed every three days and gels were cultured for 10 days. Collagen gels containing no cells were used as a control. Gels were rinsed in 1×PBS overnight to remove serum protein, and gels were tested for elastin content using the Fastin elastin assay per manufacturers protocol (Biocolor, County […].). Briefly, gels were solubilized in 0.25 M oxalic acid by incubating at 100° C. for 1 hr. Elastin was precipitated and samples were then centrifuged at 11,000×g for 10 min. The solubilized collagen supernatant was removed and the elastin pellet was stained by Fastin Dye Reagent for 90 min at room temperature. Samples were centrifuged at 11,000×g for 10 min and unbound dye in the supernatant was removed. Dye from the elastin pellets was released by the Fastin Dye Dissociation Reagent, and 100 μL samples were transferred to a 96-well plate (Costar). Absorbance was measured at 513 nm, and elastin content was calculated from an α-elastin standard curve.

collagen [3] = target: T1, collagen (Bos taurus, UniProt P02453+P02465); assay: Viscoelastic characterization of collagen gels containing Dc13 or DS-Dc13; details: varying ratios of collagen to additive
T1 construct: purchased Inamed, Freemont, Calif; (Nutragen)
T1 sequence (P02453 162-1217 limits assumed): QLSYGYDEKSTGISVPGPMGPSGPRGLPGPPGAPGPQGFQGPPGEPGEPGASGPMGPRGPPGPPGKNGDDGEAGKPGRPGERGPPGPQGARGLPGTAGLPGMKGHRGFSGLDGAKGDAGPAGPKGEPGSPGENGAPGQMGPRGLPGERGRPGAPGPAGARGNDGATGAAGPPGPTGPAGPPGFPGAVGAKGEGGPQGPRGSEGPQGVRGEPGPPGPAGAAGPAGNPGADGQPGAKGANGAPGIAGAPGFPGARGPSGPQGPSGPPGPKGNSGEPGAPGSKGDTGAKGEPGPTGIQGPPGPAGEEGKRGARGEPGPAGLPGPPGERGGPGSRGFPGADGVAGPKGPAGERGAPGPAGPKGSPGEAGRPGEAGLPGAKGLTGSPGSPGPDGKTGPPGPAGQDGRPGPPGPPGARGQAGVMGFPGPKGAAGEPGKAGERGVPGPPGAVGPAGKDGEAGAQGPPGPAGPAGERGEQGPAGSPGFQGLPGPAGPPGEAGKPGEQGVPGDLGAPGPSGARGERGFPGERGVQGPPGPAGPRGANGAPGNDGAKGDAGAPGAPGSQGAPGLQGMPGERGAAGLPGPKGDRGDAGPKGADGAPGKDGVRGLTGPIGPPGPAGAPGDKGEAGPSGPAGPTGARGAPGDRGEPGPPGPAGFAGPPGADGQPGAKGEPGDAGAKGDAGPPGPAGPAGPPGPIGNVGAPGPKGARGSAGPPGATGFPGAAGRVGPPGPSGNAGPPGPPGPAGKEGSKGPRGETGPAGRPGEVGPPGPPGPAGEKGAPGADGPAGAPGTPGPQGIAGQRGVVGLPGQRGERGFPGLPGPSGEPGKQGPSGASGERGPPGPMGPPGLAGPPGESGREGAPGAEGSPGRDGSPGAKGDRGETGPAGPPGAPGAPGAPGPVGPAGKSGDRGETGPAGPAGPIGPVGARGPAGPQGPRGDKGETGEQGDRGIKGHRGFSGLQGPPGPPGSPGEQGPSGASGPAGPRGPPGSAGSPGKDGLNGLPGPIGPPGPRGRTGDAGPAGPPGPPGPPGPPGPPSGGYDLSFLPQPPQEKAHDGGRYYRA
T1 sequence (P02465 80-1117 limits assumed): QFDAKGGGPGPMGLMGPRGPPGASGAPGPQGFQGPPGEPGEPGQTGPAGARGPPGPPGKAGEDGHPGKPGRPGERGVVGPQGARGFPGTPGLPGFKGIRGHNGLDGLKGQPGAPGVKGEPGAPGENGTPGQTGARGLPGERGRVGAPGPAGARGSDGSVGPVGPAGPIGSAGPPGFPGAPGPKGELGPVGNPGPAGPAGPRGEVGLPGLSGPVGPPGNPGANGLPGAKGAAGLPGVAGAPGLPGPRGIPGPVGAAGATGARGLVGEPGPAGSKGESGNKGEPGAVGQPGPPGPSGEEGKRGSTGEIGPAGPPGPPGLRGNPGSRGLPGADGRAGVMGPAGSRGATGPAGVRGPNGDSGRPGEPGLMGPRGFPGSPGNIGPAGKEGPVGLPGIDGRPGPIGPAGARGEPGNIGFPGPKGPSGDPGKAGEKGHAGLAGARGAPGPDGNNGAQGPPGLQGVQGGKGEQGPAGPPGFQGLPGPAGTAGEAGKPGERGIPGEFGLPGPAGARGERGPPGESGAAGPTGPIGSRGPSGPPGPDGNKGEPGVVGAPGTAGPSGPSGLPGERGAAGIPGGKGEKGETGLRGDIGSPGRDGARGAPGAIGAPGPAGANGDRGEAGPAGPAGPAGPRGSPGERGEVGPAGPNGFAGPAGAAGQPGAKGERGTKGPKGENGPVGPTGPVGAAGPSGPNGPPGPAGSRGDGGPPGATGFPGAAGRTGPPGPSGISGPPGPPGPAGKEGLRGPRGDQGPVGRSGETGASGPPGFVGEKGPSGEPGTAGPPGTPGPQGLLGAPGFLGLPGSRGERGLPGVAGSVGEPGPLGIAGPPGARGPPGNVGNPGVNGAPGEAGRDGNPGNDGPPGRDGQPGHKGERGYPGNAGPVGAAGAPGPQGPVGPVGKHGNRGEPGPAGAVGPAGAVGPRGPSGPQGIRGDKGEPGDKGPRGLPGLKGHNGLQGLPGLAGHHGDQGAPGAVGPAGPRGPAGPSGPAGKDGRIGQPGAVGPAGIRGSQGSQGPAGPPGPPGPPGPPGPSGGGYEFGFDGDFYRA
Method: Collagen gels were prepared, as in EXAMPLE 15. Viscoelastic characterization was performed as described in EXAMPLE 16 on gels formed with varying ratios of collagen to additive (treatment).

collagen [4] = target: T1, collagen; assay: Collagen fibrillogenesis by turbidity at 313 nm; assay type: biochemical; details: 4 mg/mL collagen, 10:1 collagen:treatment unless otherwise indicated
Method: Collagen fibrillogenesis was monitored by measuring turbidity related absorbance at 313 nm providing information on rate of fibrillogenesis and fibril diameter. Gel solutions were prepared as described in EXAMPLE 15 (4 mg/mL collagen, 10:1 collagen:treatment, unless otherwise indicated) and 50 uL/well were added at 4° C. to a 384-well plate. The plate was kept at 4° C. for 4 hours before initiating fibril formation. A SpectraMax M5 at 37° C. was used to measure absorbance at 313 nm at 30 s intervals for 6 hours.
A fibrillogenesis assay as described for DS-SILY, EXAMPLE 17, performed with the conjugate DS-Dc13.

collagen [5] = target: T1, collagen; assay: Cryo-SEM measurement of fibril density; details: 10:1 molar ratio, cryo-SEM 10,000×
Method: Collagen gels were formed in the presence of each additive at a 10:1 molar ratio, as described in EXAMPLE 15, directly on the SEM stage, processed, and imaged as described. Images at 10,000× were analyzed for fibril density calculations. Images were converted to 8-bit black and white, and threshold values for each image were determined using ImageJ software (NIH). The threshold was defined as the value where all visible fibrils are white, and all void space is black. The ratio of white to black area was calculated using MatLab software. All measurements were taken in triplicate and thresholds were determined by an observer blinded to the treatment.

[6] = test system: Human platelet-rich plasma on fibrillar collagen; assay: Platelet binding to collagen under flow; assay type: cell-based; details: 50 μM for 15 min; 2 mL/hr for 1 hour, shear rate 355 s^−1
Method: To mimic physiologic conditions with flowing blood, platelet binding to collagen surfaces under flow conditions was evaluated. Flow kits were obtained from Ibidi (Munchen, Germany). Each channel was coated with fibrillar collagen (Chronolog). Excess collagen was removed from the flow channel by pushing 1×PBS through the channel with a syringe. DS-SILY18 was incubated in the channel at a concentration of 50 μM for 15 min at 37° C., and unbound peptidoglycan was rinsed by pushing 1×PBS through the channel with a syringe. The control channel consisted of collagen not treated with peptidoglycan.
Platelet rich plasma was pushed through the channels at 2 mL/hr for 1 hour, corresponding to a shear stress of 3.55 dynes/cm^2 and a shear rate of 355 s^−1. Unbound platelets were rinsed from the channel by pushing through 1×PBS. Adhered platelets were fixed in the channel with 10% formaldehyde. Platelets were permeabilized and actin filaments were stained with phalloidin-Alexa Fluor 488 (Invitrogen).

Monomeric collagen = target: T2, Monomeric collagen (Bos taurus, UniProt P02453+P02465); assay: Fluorescence binding of dansyl-labeled DS-peptide conjugates to immobilized collagen; details: 100 μM to 10 nM; 30 min at 37° C.
T2 construct: purchased Advanced Biomatrix 5010
T2 sequence (P02453 162-1217 limits assumed): as the sequence (P02453 162-1217 limits assumed) above
T2 sequence (P02465 80-1117 limits assumed): as the sequence (P02465 80-1117 limits assumed) above
Method: In order to determine whether the peptide conjugate maintained its ability to bind to collagen after its conjugation to DS, a fluorescent binding assay was performed. A fluorescently labeled version of SILY, Z-SILY, was synthesized by adding dansylglycine to the amine terminus. This peptide was conjugated to DS and purified using the same methods described for SILY.
Binding assays were done in a 96-well high binding plate, black with a clear bottom (Costar). Collagen was compared to untreated wells and BSA coated wells. Monomeric collagen (Advanced Biomatrix Cat. No. 5010) and BSA were immobilized at 37° C. for 1 hr by incubating 90 μL/well at concentrations of 2 mg/mL in 10 mM HCl and 1×PBS respectively. Each well was washed 3× with 1×PBS after incubating.
Wells were preincubated with DS at 37° C. for 30 min to eliminate nonspecific binding of DS to collagen. Wells were rinsed 3× with 1×PBS before incubating with DS-Z-SILY. […] Fluorescence readings were taken on an M5 Spectramax Spectrophotometer (Molecular Devices) at excitation/emission wavelengths of 335 nm/490 nm, respectively.
Fluorescence binding of DS-Z-SILY on immobilized collagen, BSA, and untreated wells are compared in FIG. 7. […]
The fluorescence binding assays described for DS-ZSILY was performed with peptide sequence ZSYIRIADTNITGC (ZDc13) (SEQ ID NO: 30).

dermatan sulfate [DS]
gel compaction, day 7 [1]: significant compared to collagen | inhibition of platelet activation (release of PF4 and NAP2) [2]: little to no effect on inhibiting platelet activation | elastin production (HCA SMCs): significantly decreased elastin production over untreated collagen | stiffness (storage modulus G′) of collagen gel (collagen [3]): increase the stiffness of the resulting collagen gel over untreated collagen

DS-SILY: dermatan sulfate-RRANAALKAGELYKSILYGC conjugate; SILY/DS ratio 1.06 in Example 2, varied ratios in Example 36 (RRANAALKAGELYKSILYGC-NH2; not fully specified (residue 20); also: dermatan sulfate conjugate, SILY/DS ratio 1.06 or varied)
fibrillogenesis (absorbance at 313 nm) (collagen [4]): decreases the rate of fibrillogenesis | fibril density (ratio of fibril containing area to void space) (collagen [5]): significantly greater fibril density | inhibition of platelet activation (release of PF4 and NAP2) [2]: able to inhibit collagen mediated platelet activation | elastin production (HCA SMCs): significantly increased elastin production over all samples | platelets bound to collagen under flow [6]: significantly fewer bound platelets on the peptidoglycan treated surface

DS-Z-SILY: dermatan sulfate conjugated to Z-SILY (Dansyl-GRRANAALKAGELYKSILYGC-NH2; also: dermatan sulfate conjugate)
fluorescence binding to collagen versus BSA and untreated wells (Monomeric collagen): binds specifically to the collagen-treated wells over BSA and untreated wells
